Here are results for one molecule from article PMC6302903, “Protein and Chemical Determinants of BL-1249 Action and Selectivity for K2P Channels” (ACS Chemical Neuroscience, 2018).

This test has as its target T1, K2P2.1(TREK-1) F172M (Mus musculus, UniProt P97438, F187M).
T1 construct: expressed in transfected cells; host or cells: Xenopus laevis oocytes, mRNA injected
In words: TEVC of K2P2.1(TREK-1) mutant F172M. It counts as cell-based. The following applies: Xenopus oocytes. An excerpt:
To identify K2P2.1(TREK-1) M2 residues that might participate in the BL-1249 response, we mapped the residues that differ between K2P2.1(TREK-1) and K2P4.1(TRAAK) in the context of the K2P2.1(TREK-1) structure[6] (Figure 5B,C). Two K2P2.1(TREK-1) M2 residues stood out as candidates that could explain the reduction in BL-1249 response when the entire M2 helix was replaced with M2 from K2P4.1(TRAAK). One is at the M2/M4 interface and occurs between Phe172 and Arg297 via a π–cation interaction that would be lost when Phe172 is replaced with the equivalent K2P4.1(TRAAK) residue Met134 (Figure 5C, right inset). […] To assess the importance of these interactions in the context of BL-1249 response, we made the K2P2.1(TREK-1) mutants F172M and F185L and measured their responses to BL-1249 (Figure 5D). […]
Xenopus laevis oocytes were harvested in accordance with UCSF IACUC protocol AN129690 and digested in calcium-free ND-96 (96 mM NaCl, 2 mM KCl, 3.8 mM MgCl2) immediately following harvest, as previously described.[6],[10] […] Defolliculated stage V–VI oocytes were injected with 0.2–6.0 ng of mRNA in 50 nL, and currents were recorded 24–48 h after injection. mRNA was synthesized from plasmid DNA using mMessage mMachine Kit (T7 promoter, Ambion, Life Technologies) and purified using RNEasy Kit (Qiagen). […]

T1 sequence (P97438 1-411 isoform P97438-2 F172M): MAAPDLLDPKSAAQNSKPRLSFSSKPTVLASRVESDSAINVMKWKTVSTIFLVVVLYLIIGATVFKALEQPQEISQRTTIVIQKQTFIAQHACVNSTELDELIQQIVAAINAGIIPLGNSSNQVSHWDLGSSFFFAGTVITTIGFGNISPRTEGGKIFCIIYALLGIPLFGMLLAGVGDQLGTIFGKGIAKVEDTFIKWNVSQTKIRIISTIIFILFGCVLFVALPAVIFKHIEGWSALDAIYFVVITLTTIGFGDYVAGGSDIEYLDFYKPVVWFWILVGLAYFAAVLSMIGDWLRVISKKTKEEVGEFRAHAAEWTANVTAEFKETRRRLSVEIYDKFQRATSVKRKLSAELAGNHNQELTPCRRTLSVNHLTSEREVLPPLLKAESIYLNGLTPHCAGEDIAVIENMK

By EC50 is commonly meant the concentration needed to bring the measured effect to its halfway point. A lower EC50 goes with a more potent agent. With `c1ccc(-c2nnn[nH]2)c(Nc2cccc3c2CCCC3)c1` [BL-1249, (5,6,7,8-tetrahydro-naphthalen-1-yl)-[2-(1H-tetrazol-5-yl)-phenyl]-amine], the EC50 was 15 ± 2 µM.
